Assay results reported in ChEMBL document CHEMBL5303573, “Mapping human microbiome drug metabolism by gut bacteria and their genes” (Nature, 2019).

tested on: not listed separately; experiment: The drug is tested on the gut metagenome community of MV02 with ENA study accession number: PRJEB31790 and ENA sample accession number: SAMEA5537483 for biotransformation. The drug concentrations were measured over 9 timepoints collected between 0 and 24 hours of incubation by liquid-chromatography-coupled mass spectrometry (LC–MS); type: ADME; parameters: dose 2 uM, timepoint 0, 1, 2, 4, 6, 8, 12, 18, 24 hours; conditions: 2 µM

Row | SMILES | Bacterial Biotransformation
1 | CC(=O)OCC(CCn1cnc2cnc(N)nc21)COC(C)=O [FAMCICLOVIR] | Compound metabolized
2 | C#C[C@]1(OC(C)=O)CC[C@H]2[C@@H]3CCC4=CC(=O)CC[C@@H]4[C@H]3CC[C@@]21C [NORETHINDRONE ACETATE] | Compound metabolized

tested on: not listed separately; experiment: The drug is tested on the gut metagenome community of MV09 with ENA study accession number: PRJEB31790 and ENA sample accession number: SAMEA5537490 for biotransformation. The drug concentrations were measured over 9 timepoints collected between 0 and 24 hours of incubation by liquid-chromatography-coupled mass spectrometry (LC–MS); type: ADME; parameters: dose 2 uM, timepoint 0, 1, 2, 4, 6, 8, 12, 18, 24 hours; conditions: 2 µM

Row | SMILES | Bacterial Biotransformation
3 | CC(=O)OCC(CCn1cnc2cnc(N)nc21)COC(C)=O [FAMCICLOVIR] | Compound metabolized
4 | C#C[C@]1(OC(C)=O)CC[C@H]2[C@@H]3CCC4=CC(=O)CC[C@@H]4[C@H]3CC[C@@]21C [NORETHINDRONE ACETATE] | Compound metabolized

tested on: not listed separately; experiment: The drug is tested on the gut metagenome community of MV12 with ENA study accession number: PRJEB31790 and ENA sample accession number: SAMEA5537493 for biotransformation. The drug concentrations were measured over 9 timepoints collected between 0 and 24 hours of incubation by liquid-chromatography-coupled mass spectrometry (LC–MS); type: ADME; parameters: dose 2 uM, timepoint 0, 1, 2, 4, 6, 8, 12, 18, 24 hours; conditions: 2 µM

Row | SMILES | Bacterial Biotransformation
5 | CC(=O)OCC(CCn1cnc2cnc(N)nc21)COC(C)=O [FAMCICLOVIR] | Compound metabolized
6 | C#C[C@]1(OC(C)=O)CC[C@H]2[C@@H]3CCC4=CC(=O)CC[C@@H]4[C@H]3CC[C@@]21C [NORETHINDRONE ACETATE] | Compound metabolized

tested on: not listed separately; experiment: The drug is tested on the gut metagenome community of MV28 with ENA study accession number: PRJEB31790 and ENA sample accession number: SAMEA5537509 for biotransformation. The drug concentrations were measured over 9 timepoints collected between 0 and 24 hours of incubation by liquid-chromatography-coupled mass spectrometry (LC–MS); type: ADME; parameters: dose 2 uM, timepoint 0, 1, 2, 4, 6, 8, 12, 18, 24 hours; conditions: 2 µM

Row | SMILES | Bacterial Biotransformation
7 | CC(=O)OCC(CCn1cnc2cnc(N)nc21)COC(C)=O [FAMCICLOVIR] | Compound metabolized
8 | C#C[C@]1(OC(C)=O)CC[C@H]2[C@@H]3CCC4=CC(=O)CC[C@@H]4[C@H]3CC[C@@]21C [NORETHINDRONE ACETATE] | Compound metabolized

tested on: not listed separately; experiment: The drug is tested on the gut metagenome community of MV04 with ENA study accession number: PRJEB31790 and ENA sample accession number: SAMEA5537485 for biotransformation. The drug concentrations were measured over 9 timepoints collected between 0 and 24 hours of incubation by liquid-chromatography-coupled mass spectrometry (LC–MS); type: ADME; parameters: dose 2 uM, timepoint 0, 1, 2, 4, 6, 8, 12, 18, 24 hours; conditions: 2 µM

Row | SMILES | Bacterial Biotransformation
9 | CC(=O)OCC(CCn1cnc2cnc(N)nc21)COC(C)=O [FAMCICLOVIR] | Compound metabolized
10 | C#C[C@]1(OC(C)=O)CC[C@H]2[C@@H]3CCC4=CC(=O)CC[C@@H]4[C@H]3CC[C@@]21C [NORETHINDRONE ACETATE] | Compound metabolized

tested on: not listed separately; experiment: The drug is tested on the gut metagenome community of MV22 with ENA study accession number: PRJEB31790 and ENA sample accession number: SAMEA5537503 for biotransformation. The drug concentrations were measured over 9 timepoints collected between 0 and 24 hours of incubation by liquid-chromatography-coupled mass spectrometry (LC–MS); type: ADME; parameters: dose 2 uM, timepoint 0, 1, 2, 4, 6, 8, 12, 18, 24 hours; conditions: 2 µM

Row | SMILES | Bacterial Biotransformation
11 | CC(=O)OCC(CCn1cnc2cnc(N)nc21)COC(C)=O [FAMCICLOVIR] | Compound metabolized
12 | C#C[C@]1(OC(C)=O)CC[C@H]2[C@@H]3CCC4=CC(=O)CC[C@@H]4[C@H]3CC[C@@]21C [NORETHINDRONE ACETATE] | Compound metabolized

tested on: not listed separately; experiment: The drug is tested on the gut metagenome community of MV08 with ENA study accession number: PRJEB31790 and ENA sample accession number: SAMEA5537489 for biotransformation. The drug concentrations were measured over 9 timepoints collected between 0 and 24 hours of incubation by liquid-chromatography-coupled mass spectrometry (LC–MS); type: ADME; parameters: dose 2 uM, timepoint 0, 1, 2, 4, 6, 8, 12, 18, 24 hours; conditions: 2 µM

Row | SMILES | Bacterial Biotransformation
13 | CC(=O)OCC(CCn1cnc2cnc(N)nc21)COC(C)=O [FAMCICLOVIR] | Compound metabolized
14 | C#C[C@]1(OC(C)=O)CC[C@H]2[C@@H]3CCC4=CC(=O)CC[C@@H]4[C@H]3CC[C@@]21C [NORETHINDRONE ACETATE] | Compound metabolized

biological target: T1, Esterase (Phocaeicola dorei, UniProt B6W2J6); experiment: (§1) The drug is tested on Bacteroides dorei strain: DSM17855 for biotransformation. The drug concentrations were measured before and after a 12-h incubation by liquid-chromatography-coupled mass spectrometry (LC–MS); type: ADME; parameters: dose 2 uM; conditions: 2 µM
T1 sequence (B6W2J6 whole entry): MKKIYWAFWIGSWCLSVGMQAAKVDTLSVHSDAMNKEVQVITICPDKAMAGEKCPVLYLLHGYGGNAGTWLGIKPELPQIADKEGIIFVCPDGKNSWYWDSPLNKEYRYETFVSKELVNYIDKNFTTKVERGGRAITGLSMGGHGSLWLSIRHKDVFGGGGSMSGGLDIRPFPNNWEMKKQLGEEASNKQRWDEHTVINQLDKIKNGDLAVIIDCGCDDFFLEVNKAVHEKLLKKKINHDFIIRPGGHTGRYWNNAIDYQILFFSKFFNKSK

Row | SMILES | Bacterial Biotransformation
15 | CC(=O)OCC(CCn1cnc2cnc(N)nc21)COC(C)=O [FAMCICLOVIR] | Compound metabolized
16 | C#C[C@]1(OC(C)=O)CC[C@H]2[C@@H]3CCC4=CC(=O)CC[C@@H]4[C@H]3CC[C@@]21C [NORETHINDRONE ACETATE] | Compound NOT metabolized

biological target: T2, Nitroreductase domain-containing protein (Phocaeicola dorei, UniProt B6W3P3); experiment: as §1; type: ADME; parameters: dose 2 uM; conditions: 2 µM
T2 sequence (B6W3P3 whole entry): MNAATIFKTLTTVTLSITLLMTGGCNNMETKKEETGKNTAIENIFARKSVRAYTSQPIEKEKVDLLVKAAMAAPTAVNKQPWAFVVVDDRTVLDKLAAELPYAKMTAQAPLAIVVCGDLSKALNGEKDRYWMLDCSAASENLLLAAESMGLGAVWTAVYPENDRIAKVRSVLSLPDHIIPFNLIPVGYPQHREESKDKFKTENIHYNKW

Row | SMILES | Bacterial Biotransformation
17 | CC(=O)OCC(CCn1cnc2cnc(N)nc21)COC(C)=O [FAMCICLOVIR] | Compound NOT metabolized
18 | C#C[C@]1(OC(C)=O)CC[C@H]2[C@@H]3CCC4=CC(=O)CC[C@@H]4[C@H]3CC[C@@]21C [NORETHINDRONE ACETATE] | Compound NOT metabolized

biological target: T3, SGNH hydrolase-type esterase domain-containing protein (Phocaeicola dorei, UniProt B6W1J1); experiment: as §1; type: ADME; parameters: dose 2 uM; conditions: 2 µM
T3 sequence (B6W1J1 whole entry): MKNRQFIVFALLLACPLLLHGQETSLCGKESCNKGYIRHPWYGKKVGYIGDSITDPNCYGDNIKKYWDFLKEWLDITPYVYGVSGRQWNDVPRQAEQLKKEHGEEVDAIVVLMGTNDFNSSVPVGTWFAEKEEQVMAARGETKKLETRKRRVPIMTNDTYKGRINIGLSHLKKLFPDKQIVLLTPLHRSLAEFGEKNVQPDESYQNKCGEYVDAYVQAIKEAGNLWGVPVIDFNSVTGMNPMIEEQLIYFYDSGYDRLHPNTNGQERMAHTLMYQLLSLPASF

Row | SMILES | Bacterial Biotransformation
19 | C#C[C@]1(OC(C)=O)CC[C@H]2[C@@H]3CCC4=CC(=O)CC[C@@H]4[C@H]3CC[C@@]21C [NORETHINDRONE ACETATE] | Compound NOT metabolized

biological target: T4, Nitroreductase domain-containing protein (Phocaeicola dorei, UniProt B6VU18); experiment: as §1; type: ADME; parameters: dose 2 uM; conditions: 2 µM
T4 sequence (B6VU18 whole entry): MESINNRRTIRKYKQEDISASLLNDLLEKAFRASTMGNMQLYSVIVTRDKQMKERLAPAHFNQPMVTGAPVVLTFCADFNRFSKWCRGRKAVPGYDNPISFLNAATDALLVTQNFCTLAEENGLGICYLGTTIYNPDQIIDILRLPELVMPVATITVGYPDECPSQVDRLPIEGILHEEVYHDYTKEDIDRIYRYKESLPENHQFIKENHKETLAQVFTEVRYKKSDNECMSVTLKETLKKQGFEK

Row | SMILES | Bacterial Biotransformation
20 | CC(=O)OCC(CCn1cnc2cnc(N)nc21)COC(C)=O [FAMCICLOVIR] | Compound NOT metabolized
21 | C#C[C@]1(OC(C)=O)CC[C@H]2[C@@H]3CCC4=CC(=O)CC[C@@H]4[C@H]3CC[C@@]21C [NORETHINDRONE ACETATE] | Compound NOT metabolized

biological target: T5, Acylhydrolase (Bacteroides thetaiotaomicron, UniProt Q8AA96); experiment: The drug is tested on Bacteroides thetaiotaomicron strain: VPI-5482 for biotransformation. The drug concentrations were measured before and after a 12-h incubation by liquid-chromatography-coupled mass spectrometry (LC–MS); type: ADME; parameters: dose 2 uM; conditions: 2 µM
T5 sequence (Q8AA96 whole entry): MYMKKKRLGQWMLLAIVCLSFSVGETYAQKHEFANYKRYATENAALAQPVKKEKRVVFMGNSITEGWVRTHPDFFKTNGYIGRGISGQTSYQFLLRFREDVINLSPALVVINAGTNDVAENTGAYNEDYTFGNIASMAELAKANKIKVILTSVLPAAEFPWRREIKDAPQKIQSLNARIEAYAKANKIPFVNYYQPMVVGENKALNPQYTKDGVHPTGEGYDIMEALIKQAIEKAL

Row | SMILES | Bacterial Biotransformation
22 | CC(=O)OCC(CCn1cnc2cnc(N)nc21)COC(C)=O [FAMCICLOVIR] | Compound metabolized
23 | C#C[C@]1(OC(C)=O)CC[C@H]2[C@@H]3CCC4=CC(=O)CC[C@@H]4[C@H]3CC[C@@]21C [NORETHINDRONE ACETATE] | Compound NOT metabolized

tested on: not listed separately; experiment: The drug is tested on the gut metagenome community of MV27 with ENA study accession number: PRJEB31790 and ENA sample accession number: SAMEA5537508 for biotransformation. The drug concentrations were measured over 9 timepoints collected between 0 and 24 hours of incubation by liquid-chromatography-coupled mass spectrometry (LC–MS); type: ADME; parameters: dose 2 uM, timepoint 0, 1, 2, 4, 6, 8, 12, 18, 24 hours; conditions: 2 µM

Row | SMILES | Bacterial Biotransformation
24 | CC(=O)OCC(CCn1cnc2cnc(N)nc21)COC(C)=O [FAMCICLOVIR] | Compound metabolized
25 | C#C[C@]1(OC(C)=O)CC[C@H]2[C@@H]3CCC4=CC(=O)CC[C@@H]4[C@H]3CC[C@@]21C [NORETHINDRONE ACETATE] | Compound metabolized

tested on: not listed separately; experiment: The drug is tested on the gut metagenome community of MV24 with ENA study accession number: PRJEB31790 and ENA sample accession number: SAMEA5537505 for biotransformation. The drug concentrations were measured over 9 timepoints collected between 0 and 24 hours of incubation by liquid-chromatography-coupled mass spectrometry (LC–MS); type: ADME; parameters: dose 2 uM, timepoint 0, 1, 2, 4, 6, 8, 12, 18, 24 hours; conditions: 2 µM

Row | SMILES | Bacterial Biotransformation
26 | CC(=O)OCC(CCn1cnc2cnc(N)nc21)COC(C)=O [FAMCICLOVIR] | Compound metabolized
27 | C#C[C@]1(OC(C)=O)CC[C@H]2[C@@H]3CCC4=CC(=O)CC[C@@H]4[C@H]3CC[C@@]21C [NORETHINDRONE ACETATE] | Compound metabolized

tested on: not listed separately; experiment: The drug is tested on the gut metagenome community of MV01 with ENA study accession number: PRJEB31790 and ENA sample accession number: SAMEA5537482 for biotransformation. The drug concentrations were measured over 9 timepoints collected between 0 and 24 hours of incubation by liquid-chromatography-coupled mass spectrometry (LC–MS); type: ADME; parameters: dose 2 uM, timepoint 0, 1, 2, 4, 6, 8, 12, 18, 24 hours; conditions: 2 µM

Row | SMILES | Bacterial Biotransformation
28 | CC(=O)OCC(CCn1cnc2cnc(N)nc21)COC(C)=O [FAMCICLOVIR] | Compound metabolized
29 | C#C[C@]1(OC(C)=O)CC[C@H]2[C@@H]3CCC4=CC(=O)CC[C@@H]4[C@H]3CC[C@@]21C [NORETHINDRONE ACETATE] | Compound metabolized
